“Also recorded” adds a separate entry of the source.
Experiments:
[1] = blood/gas; cited from earlier work
[2] = system: myocardial ischemia-reperfusion injury; assay: Myocardial infarct size following ischemia and reperfusion (30 min LAD occlusion, 3 h reperfusion); type: in vivo, rabbit; details: for infarct size plotted as a function of area at risk, versus control regression line: FIGS. 4A, 4B, 5A, 5B; for cardioprotection (protection against myocardial ischemia-reperfusion injury): i.v. emulsion prior to coronary artery occlusion; for IF/AAR: infarct size as percentage of area at risk, i.v. emulsion 10 ml/h 30 min, stopped 30 min before occlusion; for IF WT: infarct weight
Method: These experiments were designed to characterize the effects of different HVAs (enflurane, isoflurane, sevoflurane, and desflurane) administered intravenously in an emulsion on myocardial infarct size following ischemia and reperfusion in rabbits.
(§1) Male New Zealand white rabbits weighing between 2.5 and 3.0 kg were anesthetized with intravenous sodium pentobarbital (30 mg/kg). Additional doses of pentobarbital were titrated as required to assure that pedal and palpebral reflexes were absent throughout the experiment. A tracheotomy was performed through a ventral midline incision, and the trachea was cannulated. The rabbits were ventilated with positive pressure using an air-oxygen mixture (FiO2=0.33). Arterial blood gas tensions and acid-base status were maintained within a normal physiological range (pH 7.35-7.45, PaCO2 25-40 mmHg, and PaO2 90-150 mmHg) by adjusting the respiratory rate or tidal volume. Body temperature was maintained with a heating blanket. Heparin-filled catheters were inserted into the right carotid artery and the left jugular vein for measurement of arterial blood pressure and fluid or drug administration, respectively. Maintenance fluids consisted of 0.9% saline (15 ml/kg/h) that were continued for the duration of the experiment.
(§2) A left thoracotomy was performed at the fourth intercostal space, and the heart was suspended in a pericardial cradle. A prominent branch of the left anterior descending coronary artery (LAD) was selected, and a silk ligature was placed around this artery approximately halfway between the base and apex for the production of coronary artery occlusion and reperfusion in myocardial infarct size experiments. Each rabbit was anticoagulated with 500 U of heparin immediately before LAD occlusion. Coronary artery occlusion was verified by the presence of epicardial cyanosis and regional dyskinesia in the ischemic zone, and reperfusion was confirmed by observing an epicardial hyperemic response. Hemodynamics were continuously recorded on a polygraph throughout experimentation. After the surgical preparation, 30 min of stabilization were allowed.
(§3) The experimental design for the experiments is illustrated in FIG. 1. Rabbits were randomly assigned to one of six experimental groups: a control group (0.9% saline infusion), a vehicle group (drug lipid vehicle), or one of four anesthetic groups (emulsified desflurane, isoflurane, enflurane, or sevoflurane). The vials of anesthetics were stored at 4° C. as prepared in Example 1. After opening, the vial was left in a water bath at 37° C. for 2 h. Anesthetics were directly poured into the syringe without using negative pressure suction.
(§4) Baseline measurements of systemic hemodynamics, arterial blood gas tensions, and blood concentrations of anesthetic agent were performed 30 min after instrumentation was completed. Rabbits received 0.9% saline, drug lipid vehicle (10 ml/h), or intravenous volatile anesthetic (10 ml/h) for 30 min. Infusions were discontinued 30 min prior to coronary occlusion (memory period). Blood concentrations of anesthetic agents were performed at baseline, at the end of anesthetic infusion, and at the end of the memory period just before coronary occlusion). HVA concentrations in blood were determined by gas chromatographic (GC) analysis. All rabbits underwent a 30 min LAD occlusion followed by 3 h reperfusion.
At the end of each experiment, the LAD was reoccluded and 3 ml of Patent blue dye was injected intravenously. The left ventricular area at risk for infarction was separated from surrounding normal areas (stained blue), and the two regions were incubated at 37° C. for 20 to 30 min in 1% 2,3,5-triphenyltetrazolium chloride in 0.1 M phosphate buffer adjusted to pH 7.4. After overnight storage in 10% formaldehyde, infarcted and noninfarcted myocardium within the area at risk were carefully separated and weighed. Infarct size was expressed as a percentage of the area at risk. […]

[3] = Systemic hemodynamics during infarct experiment; type: in vivo, rabbit
Method: as §1, with “Arterial blood gas tensions and acid-base status were maintained within a normal physiological range (pH 7.35-7.45, PaCO2 25-40 mmHg, and PaO2 90-150 mmHg) by adjusting the respiratory rate or tidal volume.” left out
as §2, §4
Statistical analysis of data within and between groups was performed with analysis of variance (ANOVA) for repeated measures followed by Student-Newman-Keuls test. Changes between groups were considered statistically significant when the p value was less than 0.05. All data are expressed as mean±SEM.

[4] = Warming of emulsion at 37° C. for 2 h before infusion; type: physicochemical; details: syringe and extension tubing
Method: as §3
All anesthetics were used under equivalent experimental conditions, as indicated previously (i.e., warmed for two hours at body temperature before infusion).
Despite efforts to remove the bubbles, it was impossible to eliminate all bubbles, and some were likely infused during the infusion period. Desflurane results should therefore be interpreted with the constraints of this experimental limitation.

[5] = i.v. emulsion 10 ml/h for 30 min, Baseline

Row | SMILES | Partition Coefficient ("λ") [1] | infarct size plotted as a function of area at risk, versus control regression line [2] | IF/AAR [2] | IF WT [2] | MAP ([3]; Baseline) | HR ([3]; Infusion) | MAP ([3]; Infusion) | RPP ([3]; Infusion) | HR ([3]; Ischemia 30 min) | MAP ([3]; Ischemia 30 min) | RPP ([3]; Ischemia 30 min) | HR ([3]; Memory) | MAP ([3]; Memory) | RPP ([3]; Memory) | HR ([3]; Reperfusion 1 h) | MAP ([3]; Reperfusion 1 h) | RPP ([3]; Reperfusion 1 h) | HR ([3]; Reperfusion 2 h) | MAP ([3]; Reperfusion 2 h) | RPP ([3]; Reperfusion 2 h) | other results
1 | FC(F)OC(F)C(F)(F)F (stereo not drawn) [DES, desflurane] | 0.42 | infarct size comparable to controls | 38.5 ± 6.7% | 0.50 ± 0.15 g | 71 ± 8 mmHg | 253 ± 9 bpm | 67 ± 9 mmHg | 20.4 ± 2.8 bpm × mmHg × 10^3 | 228 ± 7 bpm | 53 ± 8 mmHg | 14.5 ± 2 bpm × mmHg × 10^3 | 231 ± 9 bpm | 58 ± 10 mmHg | 16.3 ± 3 bpm × mmHg × 10^3 | 201 ± 14 bpm | 54 ± 7 mmHg | 12.4 ± 0.4 bpm × mmHg × 10^3 | 216 ± 6 bpm | 58 ± 8 mmHg | 15 ± 2.1 bpm × mmHg × 10^3 | cardioprotection (protection against myocardial ischemia-reperfusion injury) [2]: unable to confer cardioprotection; also recorded: did not confer cardioprotection; MAP ([3]; Memory, listed as desflurane): decrease in mean arterial pressure; RPP ([3]; Reperfusion 1 h, listed as desflurane): decreased; HR ([3]; Reperfusion 3 h): 219 ± 7 bpm; MAP ([3]; Reperfusion 3 h): 54 ± 5 mmHg; RPP ([3]; Reperfusion 3 h): 14.2 ± 1.4 bpm × mmHg × 10^3; HR [3, 5]: 261 ± 11 bpm; behaviour of emulsion on warming to body temperature [4]: bubbles accumulated in the syringe and extension tubing
2 | FC(F)OC(F)(F)C(F)Cl (stereo not drawn) [ENF, enflurane] | 1.9 | infarcts were smaller than in the control group | 20.0 ± 2.8 % | 0.21 ± 0.02 g | 78 ± 4 mmHg | 240 ± 11 bpm | 68 ± 3 mmHg | 18.9 ± 1.5 bpm × mmHg × 10^3 | 213 ± 9 bpm | 59 ± 6 mmHg | 14.5 ± 1.7 bpm × mmHg × 10^3 | 231 ± 11 bpm | 70 ± 3 mmHg | 18.9 ± 1.4 bpm × mmHg × 10^3 | 216 ± 7 bpm | 65 ± 6 mmHg | 15.8 ± 1.5 bpm × mmHg × 10^3 | 214 ± 10 bpm | 68 ± 7 mmHg | 16.5 ± 1.6 bpm × mmHg × 10^3 | cardioprotection (protection against myocardial ischemia-reperfusion injury) ([2]; listed as Enflurane): provided protection against myocardial ischemia-reperfusion injury; cardioprotection (protection against myocardial ischemia-reperfusion injury) ([2]; listed as enflurane): adequate protection against myocardial ischemia-reperfusion injury; also recorded: significant reduction in the myocardial infarct size; RPP ([3]; Baseline): 22 ± 1.9 bpm × mmHg × 10^3; HR ([3]; Reperfusion 3 h): 210 ± 7 bpm; MAP ([3]; Reperfusion 3 h): 75 ± 5 mmHg; RPP ([3]; Reperfusion 3 h): 17.6 ± 1.3 bpm × mmHg × 10^3; HR [3, 5]: 248 ± 10 bpm
3 | FC(F)OC(Cl)C(F)(F)F (stereo not drawn) [ISO, isoflurane] | 1.4 | infarcts were smaller than in the control group | 18.1 ± 2.6 % | 0.18 ± 0.03 g | 64 ± 5 mmHg | 227 ± 14 bpm | 57 ± 6 mmHg | 16.2 ± 2.2 bpm × mmHg × 10^3 | 220 ± 11 bpm | 54 ± 5 mmHg | 14.3 ± 1.6 bpm × mmHg × 10^3 | 229 ± 10 bpm | 62 ± 6 mmHg | 16.7 ± 2 bpm × mmHg × 10^3 | 212 ± 4 bpm | 52 ± 3 mmHg | 13.3 ± 0.8 bpm × mmHg × 10^3 | 201 ± 6 bpm | 54 ± 3 mmHg | 13.2 ± 1 bpm × mmHg × 10^3 | cardioprotection (protection against myocardial ischemia-reperfusion injury) [2]: provided protection against myocardial ischemia-reperfusion injury; also recorded: adequate protection against myocardial ischemia-reperfusion injury; also recorded: significant reduction in the myocardial infarct size; RPP ([3]; Baseline): 17.7 ± 2 bpm × mmHg × 10^3; MAP ([3]; Infusion, listed as isoflurane): decreased; RPP ([3]; Reperfusion 1 h, listed as isoflurane): decreased; HR ([3]; Reperfusion 3 h): 195 ± 7 bpm; MAP ([3]; Reperfusion 3 h): 58 ± 3 mmHg; RPP ([3]; Reperfusion 3 h): 13.5 ± 1 bpm × mmHg × 10^3; HR [3, 5]: 240 ± 9 bpm
4 | FCOC(C(F)(F)F)C(F)(F)F [SEVO, sevoflurane] | 0.69 | infarcts were smaller than in the control group | 20.5 ± 2.3 % | 0.19 ± 0.04 g | increased | 235 ± 9 bpm | increased | 23.7 ± 1.7 bpm × mmHg × 10^3 | 214 ± 8 bpm | 64 ± 5 mmHg | 15.7 ± 1.6 bpm × mmHg × 10^3 | 227 ± 11 bpm | 87 ± 4 mmHg | 22.1 ± 1.8 bpm × mmHg × 10^3 | 206 ± 9 bpm | 65 ± 3 mmHg | 15.2 ± 1.3 bpm × mmHg × 10^3 | 193 ± 10 bpm | 65 ± 3 mmHg | 14 ± 1.2 bpm × mmHg × 10^3 | cardioprotection (protection against myocardial ischemia-reperfusion injury) [2]: provided protection against myocardial ischemia-reperfusion injury; also recorded: adequate protection against myocardial ischemia-reperfusion injury; also recorded: significant reduction in the myocardial infarct size; RPP ([3]; Baseline): 22.9 ± 1.3 bpm × mmHg × 10^3; MAP ([3]; Baseline, listed as SEV): 92 ± 4 mmHg; MAP ([3]; Infusion, listed as SEV): 91 ± 4 mmHg; HR ([3]; Reperfusion 3 h): 188 ± 9 bpm; MAP ([3]; Reperfusion 3 h): 65 ± 2 mmHg; RPP ([3]; Reperfusion 3 h): 13.8 ± 0.8 bpm × mmHg × 10^3; HR [3, 5]: 227 ± 7 bpm
